Reference: paper PMC4564171 (PLoS ONE, 2015)
Values joined by “and” are separate entries in the source; they are usually repeats but may differ in a detail not shown here. Equal entries are not always repeated.

Experiments:
[1] = test system: spread of an active S. flexneri infection; conditions: at concentrations at or below their IC50s in the reporter assay; cited from earlier work
[2] = test system: initial S. flexneri invasion; set-up: method as in PMID 24549153, PMID 20237205; conditions: at concentrations at or below its IC50 in the reporter assay; cited from earlier work
[3] = test system: 60 bp pvirB FID DNA probe; experiment: Fluorescence intercalator displacement (FID) assay, 60 bp probe; assay type: binding, Shigella flexneri; conditions: for 60 bp pvirB FID probe %fluorescence: ethidium bromide 45 μM, probe 1.5 μM
Experimental: (§1) The FID protocol was based on previously published studies and was conducted in triplicate. For the assay, black, half-area, 96-well plates (Corning, Twerksbury, MA) were used. First, 70 μL of ethidium bromide in Tris Buffer (0.1 M Tris HCl, 0.1 M NaCl, pH 8.0) was added to all wells. The concentration of ethidium bromide was contingent upon the length of the DNA probe that was used. For the 60 bp pvirB FID DNA probe, the final ethidium bromide concentration used was 45 μM; whereas, for the 10 bp pvirB (51–60) FID DNA probe, the final ethidium bromide concentration used was 7.5 μM. Next, 10 μL of either pvirB FID DNA probes (10 or 60 bp) in TE/NaCl buffer (see above) or 10 μL of TE/NaCl buffer (background fluorescence control) were added to the appropriate wells of the plate. The final concentrations of the pvirB FID DNA probes were 1.5 μM. Lastly, 20 μL of test compound (either 19615 or Berenil) in 10% DMSO Tris Buffer or 20 μL of 10% DMSO Tris Buffer (100% fluorescence control) were added to the appropriate wells of the plate. The final concentrations of each test compound ranged from 12.5 μM to 100 μM. After the addition of all reagents, the plates were protected from light and allowed to equilibrate for 30 min on an orbital shaker at room temperature. Following equilibration, fluorescence was measured […] using a Biotek Synergy H1 plate reader (Winooski, VT). The average background fluorescence was subtracted from all data generated and %fluorescence was calculated for all wells containing compound via the following formula: %fluorescence=Ftest/F100%^*100 where: Ftest = the average fluorescence value obtained for each test compound and F100% = the average fluorescence value obtained for each 100% fluorescence control.

[4] = test system: 10 bp pvirB FID DNA probes; experiment: Fluorescence intercalator displacement (FID) assay, 10 bp probes; assay type: binding, Shigella flexneri; conditions: for 10 bp pvirB 51–60 FID probe %fluorescence: ethidium bromide 7.5 μM, probe 1.5 μM
Experimental: as §1, with “The final concentrations of each test compound ranged from 12.5 μM to 100 μM.” left out

[5] = test system: 60 bp pvirB FID (DNA, duplex) AGAATATTATTCTTTTATCCAATAAAGATAAATTGCATCAATCCAGCTATTAAAATAGTA/TACTATTTTAATAGCTGGATTGATGCAATTTATCTTTATTGGATAAAAGAATAATATTCT; experiment: fluorescent intercalator displacement (ethidium bromide); conditions: 0.1 M NaCl; 0.1 M Tris-HCl pH 8.0, room temperature; 45 μM ethidium displaced; 1.5 μM DNA; 100 μM compound
[6] = test system: 10 bp pvirB 51-60 FID (DNA, duplex) TAAAATAGTA/TACTATTTTA; experiment: as above; conditions: 0.1 M NaCl; 0.1 M Tris-HCl pH 8.0, room temperature; 7.5 μM ethidium displaced; 1.5 μM DNA; 100 μM compound
[7] = test system: pvirB 1-10 (DNA, duplex) AGAATATTAT/ATAATATTCT; experiment: as above; conditions: 0.1 M NaCl; 0.1 M Tris-HCl pH 8.0; ethidium displaced; 2 μM compound, single concentration
[8] = test system: pvirB 11-20 (DNA, duplex) TCTTTTATCC/GGATAAAAGA; experiment: as above; conditions: 0.1 M NaCl; 0.1 M Tris-HCl pH 8.0; ethidium displaced; 2 μM compound, single concentration
[9] = test system: pvirB 21-30 (DNA, duplex) AATAAAGATA/TATCTTTATT; experiment: as above; conditions: 0.1 M NaCl; 0.1 M Tris-HCl pH 8.0; ethidium displaced; 2 μM compound, single concentration
[10] = test system: pvirB 31-40 (DNA, duplex) AATTGCATCA/TGATGCAATT; experiment: as above; conditions: 0.1 M NaCl; 0.1 M Tris-HCl pH 8.0; ethidium displaced; 2 μM compound, single concentration

Question: With `COc1ccc(NC(=O)c2nc(S(C)(=O)=O)ncc2Cl)cc1Cl` [compound 144092] as the molecule, how does the “Inhibition of the spread of an active S. flexneri infection” value [1] read?
Answer: approximately 75%

Question: What about the “Inhibition of initial S. flexneri invasion” value [2] of the same molecule?
Answer: approximately 50%

Question: Which “Displacement of ethidium bromide from the pvirB DNA probes (FID)” value ([3]; 12.5 to 100 μM, both 60 bp and 10 bp probes) does the source give for `CC(=O)NCC(=O)O.CC(=O)NCC(=O)O.N=C(N)c1ccc(N=NNc2ccc(C(=N)N)cc2)cc1` [Berenil, reference compound] here?
Answer: able to displace ethidium bromide

Question: And the “60 bp pvirB FID probe %fluorescence” value ([3]; compound 12.5 μM)?
Answer: 76% ± 2%

Question: And the “60 bp pvirB FID probe %fluorescence” value ([3]; compound 25 μM)?
Answer: 67% ± 2%

Question: What about the “60 bp pvirB FID probe %fluorescence” value ([3]; compound 50 μM) of the same molecule?
Answer: 58% ± 1%

Question: What about the “60 bp pvirB FID probe %fluorescence” value ([3]; compound 100 μM) of the same molecule?
Answer: 48% ± 2%

Question: What about the “%fluorescence, 10 bp fragment pvirB 21-30” value ([4]; compound 2 μM, preliminary FID screen, 5'-AATAAAGATA-3') of the same molecule?
Answer: 81% ± 4%

Question: What about the “%fluorescence, 10 bp fragment pvirB 31-40” value ([4]; compound 2 μM, preliminary FID screen, 5'-AATTGCATCA-3') of the same molecule?
Answer: 89% ± 5%

Question: What about the “%fluorescence, 10 bp fragment pvirB 1-10” value ([4]; compound 2 μM, preliminary FID screen, 5'-AGAATATTAT-3') of the same molecule?
Answer: 45% ± 2%

Question: And the “%fluorescence, 10 bp fragment pvirB 41-50” value ([4]; compound 2 μM, preliminary FID screen, 5'-ATCCAGCTAT-3')?
Answer: 96% ± 2%

Question: And the “%fluorescence, 10 bp fragment pvirB 51-60” value ([4]; compound 2 μM, preliminary FID screen, 5'-TAAAATAGTA-3')?
Answer: 67% and 67% ± 0%

Question: What about the “%fluorescence, 10 bp fragment pvirB 11-20” value ([4]; compound 2 μM, preliminary FID screen, 5'-TCTTTTATCC-3') of the same molecule?
Answer: 66% ± 0%

Question: And the “10 bp pvirB 51–60 FID probe %fluorescence” value ([4]; compound 12.5 μM)?
Answer: 52% ± 1%

Question: And the “10 bp pvirB 51–60 FID probe %fluorescence” value ([4]; compound 25 μM)?
Answer: 51% ± 2%

Question: What about the “10 bp pvirB 51–60 FID probe %fluorescence” value ([4]; compound 50 μM) of the same molecule?
Answer: 51% ± 1%

Question: And the “10 bp pvirB 51–60 FID probe %fluorescence” value ([4]; compound 100 μM)?
Answer: 46% ± 1%

Question: What about the “%fluorescence” value [5] of the same molecule?
Answer: 48 ± 2%

Question: And the “%fluorescence” value [6]?
Answer: 46 ± 1%

Question: What about the “%fluorescence” value [7] of the same molecule?
Answer: 45 ± 2%

Question: What about the “%fluorescence” value [8] of the same molecule?
Answer: 66 ± 0%

Question: What about the “%fluorescence” value [9] of the same molecule?
Answer: 81 ± 4%

Question: What about the “%fluorescence” value [10] of the same molecule?
Answer: 89 ± 5%
